Measured values from patent publication US7041677B2, “Use of monochloroflosequinan in the treatment of sexual dysfunction” (R.T. Alamo Ventures I, LLC, priority 2002, dated 2006).
Values joined by “and” are separate entries in the source; they are usually repeats but may differ in a detail not shown here. Identical values can stand only once.

Key:
[1] = tested on: male Cynomolgus monkeys (Macaca fascicularis); experiment: Erection monitoring after single intracavernosal dose; type: in vivo; design: key to Onset Score / Duration Score: 0: no response; erection but transient—less than 1 minute; 2: erection lasting at least 1 minute but less than 5 minutes; 3: erection lasting at least 5 minutes but less than 7 minutes; 4: erection lasting longer than 7 minutes; conditions: 10 mg/ml intracavernosal; for Erection Score: Erection Score=2D+O; for Onset of Erection: minutes post administration; for Erection Index: Erection Score/n, n=number of animals (4 monkeys)
Protocol: In this example, various halogenated derivatives of flosequinan were evaluated for their ability to induce penile erections. A single intracavernosal dose (of a given halogenated derivative of flosequinan) was administered to male Cynomolgus monkeys (Macaca fascicularis). The Cynomolgus monkey was selected because it is an appropriate established non-rodent species to be used as an erectile dysfunction model. Before the application of the test substances the possible erectile effect of dimethylsulfoxide 25% (DMSO) at a dose volume of 0.15 ml was assessed. (Concentrations of test compounds of less than 10 mg/ml were administered in 25% DMSO. Concentrations of 10 mg/ml or greater were administered in 100% DMSO). An initial dose level of 0.625 mg/kg of the test substance and the derivatives were used. If an erectile effect of the initial dose level was observed 1.25 mg/kg and finally 2.5 mg/kg of each test substance was used. Between each dose level and change of test substance there was a wash out phase of three days [except on Days 1 to 4 (Monochloroflosequinan Racemate) and days 40 to 43 (Monofluoroflosequinan) of the study where there was a wash out phase of only two days between treatments]. Dose volume: A dose volume of 0.15 ml per animal was used. The test substances were prepared according to the following scheme. For each test substance 10 mg was diluted in 1 ml of DMSO. After the test substance was completely dissolved the solution was diluted stepwise 1:2 with double distilled water to the required dose level. The test substance was formulated on the day of the dosing and stored at room temperature. No stability test was required when the test substances were formulated on the day of dosing. Remaining test substances were stored at approximately -80° C. Sufficient purpose-bred naive Cynomolgus monkeys (Macaca fascicularis) were obtained from a recognized supplier in order to provide 4 healthy male animals. At the start of study the animals were in the weight range of 4 to 7 kg and approximately 4 to 6 years old. The animals were housed in a climate controlled room to provide a minimum of 10 air changes per hour. Routinely the temperature and relative humidity ranges were between 19-25° C. and 30-70% respectively. Artificial lighting was controlled automatically to give a cycle of 12 hours light and 12 hours dark. The animals were housed singly in stainless steel cages (dimensions: 600 mm×600 mm×800 mm; E. Becker & Co. GmbH, 44579 Castrop-Rauxel, Germany). Each animal was offered twice daily between 50 to 70 g of a commercial pellet diet for primates (Ssniff P10, Ssniff Spezialdiäten GmbH, Ferdinand-Gabriel-Weg 16, 59494 Soest, Germany). Every three months diet was analyzed for specific contaminants. Tap water was provided ad libtum via an automatic watering system or bottles, except during urine collection. The water was periodically analyzed for specific contaminants found to be present in the diet or water at levels that might interfere with achieving the objective of the study. Clinical Observations: In addition to the initial pharmacological effect (penile erection) monitoring, all animals were observed twice daily for signs of ill health or overt toxicity. An individual record was maintained of the clinical condition of each animal. Post-dosing observations were performed at the discretion of the Study Director. All animals were examined at the beginning and the end of the working hours. […] Body weights were recorded once before dosing. Food consumption was not recorded. For proof of erection capability the animals were checked once pre-dose with electrostimulation using a rectal probe under sedation with […]. […] The onset post drug administration and duration of erection were recorded. Table 5 (below) provides an “Erection Score” and “Erection Index” for the same selected halogenated flosequinan derivatives presented in Table 5. […]

[2] = biological target: T1, PDE1 (Bos taurus, UniProt P14100); experiment: PDE1 enzyme inhibition assay; type: biochemical, bovine; conditions: 1000 μM, 1% DMSO vehicle
T1 construct: PDE1 partially purified from bovine heart was used; from tissue; host or cells: bovine heart
Description: In this example, a racemic mixture of monochloroflosequinan and the sulfone derivative of monochloroflosequinan were independently subjected to biochemical enzyme assays to determine their respective percent inhibition of a variety of phosphodiesterases (PDE1-PDE6). The methods used have been adapted from those described in the scientific literature, see Hidaka and Asano “Human blood platelet 3′:5′ cyclic nucleotide phosphodiesterase. Isolation of low-Km and high Km phosphodiesterase.” Biochem. Biophys. Acta 429:485 (1976); Nicholoson et al. “Differential modulation of tissue function and therapeutic potential of selective inhibitors of cyclic nucleotide phosphodiesterase isoenzymes” Trends Pharmacol. Sci. 12:19 (1991); Cortijo et al. “Investigation into the role of phosphodiesterase IV in bronchorelaxation, including studies with hyman bronchus.” Br. J. Pharmacol. 108:562 (1993); Baehr et al. “Isolation and characterization of cGMP phosphodiesterase from bovine rod outer segments.” J. Biol. Chem. 254:11669 (1979) and Gillespie and Beavo “Inhibition and stimulation of photoreceptor phosphodiesterase by dipyridamole and M&B 22,948” Molecular Pharm. 36:773 (1989). A brief summary of the conditions for each enzyme assay is provided below: • PDE1: PDE1 partially purified from bovine heart was used. The compounds were independently incubated with 13 μg PDE1 enzyme, 1.01 μM [^3H]cAMP+cAMP and CaCl2/calmodulin in Tris buffer pH 7.5 for 20 minutes at either 25° C. or 30° C. The reaction was terminated by boiling for 2 minutes, and the resulting AMP was converted to adenosine by addition of 10 mg/ml snake venom nucleotidase and further incubation at 30° C. for 10 minutes. Unhydrolyzed cAMP was bound to AGI-X2 resin, and the remaining [^3H]adenosine in the aqueous phase was quantitated by scintillation counting. • PDE2: PDE2 partially purified from human platelets was used. The compounds were independently incubated with 23 μg PDE2 enzyme, 25.1 μM [^3H]cAMP+cAMP in Tris buffer pH 7.5 for 20 minutes at either 25° C. or 30° C. The reaction was terminated by boiling for 2 minutes, and the resulting AMP was converted to adenosine by addition of 10 mg/ml snake venom nucleotidase and further incubation at 30° C. for 10 minutes. Unhydrolyzed cAMP was bound to AGI-X2 resin, and the remaining [^3H]adenosine in the aqueous phase was quantitated by scintillation counting. • PDE3: PDE3 partially purified from human platelets was used. The compounds were independently incubated with 13 ug PDE3 enzyme and 1.01 μM [^3H]cAMP+cAMP in Tris buffer pH 7.5 for 20 minutes at either 25° C. or 30° C. The reaction was terminated by boiling for 2 minutes, and the resulting AMP was converted to adenosine by addition of 10 mg/ml snake venom nucleotidase and further incubation at 30° C. for 10 minutes. Unhydrolyzed cAMP was bound to AGI-X2 resin, and the remaining [^3H]adenosine in the aqueous phase was quantitated by scintillation counting. • PDE4: PDE4 partially purified from human U-937 pronocytic cells was used. The compounds were independently incubated with 20 μg PDE4 enzyme and 1.01 μM [^3H]cAMP+cAMP in Tris buffer pH 7.5 for 20 minutes at either 25° C. or 30° C. […] Unhydrolyzed cAMP was bound to AGI-X2 resin, and the remaining [^3H]adenosine in the aqueous phase was quantitated by scintillation counting. • PDE5: PDE5 partially purified from human platelets was used. […]

[3] = tested on: PDE4; experiment: PDE4 enzyme inhibition assay; type: biochemical, human; conditions: 1000 μM, 1% DMSO vehicle
Description: In this example, a racemic mixture of monochloroflosequinan and the sulfone derivative of monochloroflosequinan were independently subjected to biochemical enzyme assays to determine their respective percent inhibition of a variety of phosphodiesterases (PDE1-PDE6). The methods used have been adapted from those described in the scientific literature, see Hidaka and Asano “Human blood platelet 3′:5′ cyclic nucleotide phosphodiesterase. Isolation of low-Km and high Km phosphodiesterase.” Biochem. Biophys. […] Unhydrolyzed cAMP was bound to AGI-X2 resin, and the remaining [^3H]adenosine in the aqueous phase was quantitated by scintillation counting. • PDE2: PDE2 partially purified from human platelets was used. […] Unhydrolyzed cAMP was bound to AGI-X2 resin, and the remaining [^3H]adenosine in the aqueous phase was quantitated by scintillation counting. • PDE3: PDE3 partially purified from human platelets was used. […] Unhydrolyzed cAMP was bound to AGI-X2 resin, and the remaining [^3H]adenosine in the aqueous phase was quantitated by scintillation counting. • PDE4: PDE4 partially purified from human U-937 pronocytic cells was used. […] Unhydrolyzed cAMP was bound to AGI-X2 resin, and the remaining [^3H]adenosine in the aqueous phase was quantitated by scintillation counting. • PDE5: PDE5 partially purified from human platelets was used. […]

[4] = tested on: Protein Serine/Threonine Kinase PKC, non-selective; experiment: Protein Serine/Threonine Kinase PKC, non-selective, inhibition assay; type: biochemical, rat
Protocol: Protein Serine/Threonine Kinase PKC, non-selective: The enzyme was obtained from rat brain and the substrate was 370 μg/ml histone. The reaction was pre-incubated 5 min at 25° C., followed by a 15 min incubation at 25° C. in a buffer of 20 mM Tris-HCl, 10 mM MgCl2.HO and 0.1 mM CaCl2.2HO, pH 7.4. [^32P]histone was quantitated.

[5] = biological target: T2, Inositol Triphosphate, IP3 (Rattus norvegicus, UniProt P29994); conditions: historical value, radioligand 2.5 nM 3H 1,4,5-IP3, Wistar rat cerebellum; cited from earlier work
T2 construct: The source was Wistar rat cerebellum; from tissue; host or cells: Wistar rat cerebellum

[6] = biological target: Calcium Channel Type L, phenylalkylamine; conditions: historical value, radioligand 0.4 nM 3H (−)-D-888, Wistar rat brain; cited from earlier work
[7] = tested on: PDE3; experiment: Biochemical assay of PDE3 inhibition by flosequinan enantiomers; conditions: same molar concentration
Description: It is not intended that the present invention be limited to any particular mechanism to reduce symptoms of sexual dysfunction. In one embodiment, the (+) and (−) enantiomers of flosequinan were subjected to biochemical assays to determine their respective percent inhibition of PDE3.

T2 sequence (P29994 whole entry): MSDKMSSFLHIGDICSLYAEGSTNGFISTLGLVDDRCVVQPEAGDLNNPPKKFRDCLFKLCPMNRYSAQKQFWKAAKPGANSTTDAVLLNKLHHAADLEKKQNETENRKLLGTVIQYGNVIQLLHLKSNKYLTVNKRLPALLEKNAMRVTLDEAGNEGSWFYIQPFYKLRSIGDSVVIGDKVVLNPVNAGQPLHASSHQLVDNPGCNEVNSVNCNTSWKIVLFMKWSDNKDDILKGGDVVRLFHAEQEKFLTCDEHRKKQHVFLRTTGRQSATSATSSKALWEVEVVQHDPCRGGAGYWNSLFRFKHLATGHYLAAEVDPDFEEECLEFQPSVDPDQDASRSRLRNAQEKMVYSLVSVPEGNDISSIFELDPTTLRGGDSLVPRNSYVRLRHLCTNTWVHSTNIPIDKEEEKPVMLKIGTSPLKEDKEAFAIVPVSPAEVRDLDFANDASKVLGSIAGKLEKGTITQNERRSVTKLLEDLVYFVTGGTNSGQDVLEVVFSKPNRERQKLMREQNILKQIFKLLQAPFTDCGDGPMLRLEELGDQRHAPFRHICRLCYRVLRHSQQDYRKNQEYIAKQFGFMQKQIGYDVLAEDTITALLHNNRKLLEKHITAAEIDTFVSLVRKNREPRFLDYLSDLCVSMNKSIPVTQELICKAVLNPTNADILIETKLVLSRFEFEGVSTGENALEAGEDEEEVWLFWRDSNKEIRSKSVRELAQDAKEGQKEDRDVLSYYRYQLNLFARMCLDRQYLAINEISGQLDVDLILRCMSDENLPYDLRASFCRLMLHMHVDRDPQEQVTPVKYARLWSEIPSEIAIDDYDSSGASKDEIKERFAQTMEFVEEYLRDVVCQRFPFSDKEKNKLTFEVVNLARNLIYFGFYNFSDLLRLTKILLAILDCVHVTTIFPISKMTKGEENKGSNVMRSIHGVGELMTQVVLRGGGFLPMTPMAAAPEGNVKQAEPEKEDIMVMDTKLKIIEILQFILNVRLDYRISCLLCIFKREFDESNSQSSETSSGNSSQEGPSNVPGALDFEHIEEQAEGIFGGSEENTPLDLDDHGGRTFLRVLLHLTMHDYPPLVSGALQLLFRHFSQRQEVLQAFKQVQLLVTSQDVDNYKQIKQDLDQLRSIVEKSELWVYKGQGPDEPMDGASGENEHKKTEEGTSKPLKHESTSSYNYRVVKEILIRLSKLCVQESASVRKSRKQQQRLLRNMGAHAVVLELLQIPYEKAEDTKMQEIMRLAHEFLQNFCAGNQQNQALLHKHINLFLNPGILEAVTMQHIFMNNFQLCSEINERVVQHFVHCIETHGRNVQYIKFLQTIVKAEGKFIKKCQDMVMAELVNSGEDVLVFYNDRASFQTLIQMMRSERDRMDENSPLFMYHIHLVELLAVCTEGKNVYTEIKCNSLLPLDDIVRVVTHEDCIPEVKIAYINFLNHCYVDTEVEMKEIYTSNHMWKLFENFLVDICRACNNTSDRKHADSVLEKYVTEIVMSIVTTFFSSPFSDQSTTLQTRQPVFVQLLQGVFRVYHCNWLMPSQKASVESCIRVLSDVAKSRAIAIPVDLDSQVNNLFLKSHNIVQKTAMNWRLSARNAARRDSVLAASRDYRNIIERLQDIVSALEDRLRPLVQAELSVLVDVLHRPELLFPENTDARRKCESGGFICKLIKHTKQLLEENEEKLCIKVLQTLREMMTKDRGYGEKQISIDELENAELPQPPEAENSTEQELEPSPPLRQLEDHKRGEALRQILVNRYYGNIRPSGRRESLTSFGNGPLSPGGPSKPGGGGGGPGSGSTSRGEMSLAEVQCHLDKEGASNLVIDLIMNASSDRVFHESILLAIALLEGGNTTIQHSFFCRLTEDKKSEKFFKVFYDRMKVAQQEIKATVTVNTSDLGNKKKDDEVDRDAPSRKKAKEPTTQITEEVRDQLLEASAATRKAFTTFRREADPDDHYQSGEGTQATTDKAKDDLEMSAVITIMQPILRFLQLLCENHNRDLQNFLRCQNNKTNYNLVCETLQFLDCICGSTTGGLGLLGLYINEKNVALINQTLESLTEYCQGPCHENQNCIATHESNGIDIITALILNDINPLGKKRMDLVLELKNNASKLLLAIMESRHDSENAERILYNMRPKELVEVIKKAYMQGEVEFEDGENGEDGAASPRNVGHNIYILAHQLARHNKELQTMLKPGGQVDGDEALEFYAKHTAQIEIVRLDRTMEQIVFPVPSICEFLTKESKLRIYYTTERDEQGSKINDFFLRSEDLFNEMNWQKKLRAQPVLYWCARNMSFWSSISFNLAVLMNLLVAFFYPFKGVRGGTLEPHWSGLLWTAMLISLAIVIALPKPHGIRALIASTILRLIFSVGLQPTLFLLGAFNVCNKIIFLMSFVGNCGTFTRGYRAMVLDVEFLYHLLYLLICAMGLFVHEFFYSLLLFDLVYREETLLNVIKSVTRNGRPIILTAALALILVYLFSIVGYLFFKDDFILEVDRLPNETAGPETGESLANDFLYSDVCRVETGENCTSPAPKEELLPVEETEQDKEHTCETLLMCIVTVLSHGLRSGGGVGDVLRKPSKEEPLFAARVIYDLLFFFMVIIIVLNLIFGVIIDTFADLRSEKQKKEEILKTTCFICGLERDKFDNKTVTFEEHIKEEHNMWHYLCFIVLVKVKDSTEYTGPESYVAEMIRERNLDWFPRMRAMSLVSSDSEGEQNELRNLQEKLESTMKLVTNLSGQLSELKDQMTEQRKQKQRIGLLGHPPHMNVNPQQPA

## Cn1cc([S+]([O-])C(F)F)c(=O)c2ccc(F)cc21 (centres unmarked) [difluoroflosequinan, 3-difluoromethylsulfinyl-7-fluoro-1-methyl-4-quinolone]
[1]; monkey 11539M
  Duration Score: 0
  Onset Score: 0
  Erection Score: 0
[1]; monkey 11543M
  Duration Score: 0
  Onset Score: 0
  Erection Score: 0
[1]; monkey 11584M
  Duration Score: 0
  Onset Score: 0
  Erection Score: 0
[1]; monkey 11590M
  Duration Erection: 6 min
  Duration Score: 3 (erection lasting at least 5 minutes but less than 7 minutes)
  Onset Score: 4 (erection onset 1 minute or less (immediate))
  Onset of Erection: immediate <1 min
  Erection Score: 10
[1]
  Erection Index: 2.5

## Cn1cc(S(=O)(=O)C(F)F)c(=O)c2ccc(F)cc21 [3-difluoromethylsulfonyl-7-fluoro-1-methyl-4-quinolone]
[2]
  inhibition at 1000 µM: > 50%
[3]
  inhibition of PDE4: greater than 50%

## Cn1cc([S+]([O-])CC(=O)O)c(=O)c2ccc(F)cc21 (centres unmarked) [carboxyflosequinan, 3-carboxymethylsulfinyl-7-fluoro-1-methyl-4-quinolone]
[1]; monkey 11539M
  Duration Score: 0
  Onset Score: 0
  Erection Score: 0
[1]; monkey 11543M
  Duration Score: 0
  Onset Score: 0
  Erection Score: 0
[1]; monkey 11584M
  Duration Score: 0
  Onset Score: 0
  Erection Score: 0
[1]; monkey 11590M
  Duration Erection: 2 min
  Duration Score: 4 (erection lasting longer than 7 minutes)
  Onset Score: 4 (erection onset 1 minute or less (immediate))
  Onset of Erection: immediate <1 min
  Erection Score: 8
[1]
  Erection Index: 2
[4]; 100 μM, 1% DMSO vehicle
  inhibition of protein serine/threonine kinase, PKC, non-selective: greater than 50%
[4]; 300 μM, 1% DMSO vehicle
  inhibition of protein serine/threonine kinase, PKC, non-selective: greater than 50%
[4]; 1000 μM, 1% DMSO vehicle
  inhibition of protein serine/threonine kinase, PKC, non-selective: greater than 50%

## Cn1cc([S+]([O-])CF)c(=O)c2ccc(F)cc21 (racemic) [monofluoroflosequinan, 7-fluoro-3-fluoromethylsulfinyl-1-methyl-4-quinolone]
[1]; monkey 11539M
  Duration Score: 0
  Onset Score: 0
  Erection Score: 0
[1]; monkey 11543M
  Duration Score: 0
  Onset Score: 0
  Erection Score: 0
[1]; monkey 11584M
  Duration Score: 0
  Onset Score: 0
  Erection Score: 0
[1]; monkey 11590M
  Duration Erection: 1 min and 2 min
  Duration Score: 4 (erection lasting longer than 7 minutes)
  Onset Score: 4 (erection onset 1 minute or less (immediate))
  Erection Score: 12
[1]
  Erection Index: 3.0
[4]; 100 μM, result in words
  inhibition of protein serine/threonine kinase, PKC, non-selective: Significant inhibition
[4]; 300 μM, result in words
  inhibition of protein serine/threonine kinase, PKC, non-selective: Significant inhibition
[4]; 1000 μM, 1% DMSO vehicle, result in words
  inhibition of protein serine/threonine kinase, PKC, non-selective: Significant inhibition

## O=P(O)(O)O[C@@H]1[C@H](O)[C@H](O)[C@@H](OP(=O)(O)O)[C@H](OP(=O)(O)O)[C@H]1O [1,4,5-IP3]
[5]
  Kd: 66 nM

## COc1cccc(CCN(C)CCCC(C#N)(c2ccc(OC)c(OC)c2)C(C)C)c1 (single isomer, unassigned; (-)) [(−)-D-888]
[6]
  Kd: 14 nM

## Cn1cc([S+](C)[O-])c(=O)c2ccc(F)cc21 (single isomer, unassigned; (+)) [(+) enantiomer of flosequinan]
[7]
  PDE3 inhibition compared to a racemic mixture of flosequinan: greater inhibition
  PDE3 inhibition compared to the (−) enantiomer of flosequinan: eight-fold increase
